According to ChEMBL document CHEMBL1932974, “Optimization of a novel kinase inhibitor scaffold for the dual inhibition of JAK2 and FAK kinases” (Bioorg Med Chem Lett, 2012):

What was measured:
[1] = molecular target: T1, Focal adhesion kinase 1 (Homo sapiens, UniProt Q05397); experiment: Inhibition of human recombinant FAK expressed in baculovirus expression system after 30 mins by time resolved fluorescence assay
[2] = molecular target: T2, Tyrosine-protein kinase JAK2 (Homo sapiens, UniProt O60674); experiment: Inhibition of human recombinant JAK2 expressed in baculovirus expression system after 20 mins by time resolved fluorescence assay
[3] = molecular target: T1, Focal adhesion kinase 1; experiment: Inhibition of FAK in human 293GT cells after 1 hr by luminescence-based spectrophotometry; format: cell-based
[4] = molecular target: T2, Tyrosine-protein kinase JAK2; experiment: Inhibition of JAK2 in GM-CSF-stimulated human TF1 cells preincubated for 1 hr prior to challenge
[5] = Metabolic stability in human liver microsomes; format: ADME, Microsome; conditions: read-out: Stability
[6] = Metabolic stability in dog liver microsomes; format: ADME, Canis lupus familiaris, Microsome; conditions: read-out: Stability
[7] = Metabolic stability in rat liver microsomes; format: ADME, Microsome; conditions: read-out: Stability
[8] = Metabolic stability in mouse liver microsomes; format: ADME, Microsome; conditions: read-out: Stability
[9] = molecular target: Insulin receptor (Homo sapiens, UniProt P06213); experiment: Inhibition of insulin receptor
[10] = molecular target: T3, Tyrosine-protein kinase JAK3 (Homo sapiens, UniProt P52333); experiment: Inhibition of JAK3
T3 sequence (P52333 whole entry): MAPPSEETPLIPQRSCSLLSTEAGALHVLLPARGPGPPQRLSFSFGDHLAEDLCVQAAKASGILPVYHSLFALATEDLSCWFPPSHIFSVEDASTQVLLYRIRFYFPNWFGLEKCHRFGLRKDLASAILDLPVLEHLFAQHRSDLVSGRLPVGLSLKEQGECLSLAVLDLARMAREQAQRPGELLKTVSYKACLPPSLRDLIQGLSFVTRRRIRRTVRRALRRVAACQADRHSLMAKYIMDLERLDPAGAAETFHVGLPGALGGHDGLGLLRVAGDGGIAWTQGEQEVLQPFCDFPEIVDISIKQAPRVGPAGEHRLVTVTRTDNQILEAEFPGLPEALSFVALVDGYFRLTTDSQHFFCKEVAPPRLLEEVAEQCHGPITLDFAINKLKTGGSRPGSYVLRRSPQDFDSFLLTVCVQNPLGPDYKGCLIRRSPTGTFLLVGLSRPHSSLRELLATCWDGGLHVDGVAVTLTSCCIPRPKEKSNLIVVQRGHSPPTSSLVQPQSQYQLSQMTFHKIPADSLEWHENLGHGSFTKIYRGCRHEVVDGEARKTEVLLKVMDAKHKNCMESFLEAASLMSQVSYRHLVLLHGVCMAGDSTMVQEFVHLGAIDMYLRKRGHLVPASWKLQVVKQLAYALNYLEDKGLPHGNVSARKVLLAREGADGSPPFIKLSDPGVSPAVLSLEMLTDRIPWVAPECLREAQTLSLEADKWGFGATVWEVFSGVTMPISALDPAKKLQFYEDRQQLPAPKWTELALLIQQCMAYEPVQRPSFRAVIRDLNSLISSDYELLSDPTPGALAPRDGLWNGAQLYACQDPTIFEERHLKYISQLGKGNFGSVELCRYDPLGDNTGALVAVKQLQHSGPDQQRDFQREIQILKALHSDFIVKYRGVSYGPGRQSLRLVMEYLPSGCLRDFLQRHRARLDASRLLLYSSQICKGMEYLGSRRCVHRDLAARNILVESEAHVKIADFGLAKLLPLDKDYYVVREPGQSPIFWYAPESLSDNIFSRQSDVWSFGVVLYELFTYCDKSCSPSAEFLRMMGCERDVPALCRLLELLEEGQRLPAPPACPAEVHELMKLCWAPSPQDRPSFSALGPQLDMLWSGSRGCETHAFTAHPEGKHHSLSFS

[11] = system: Mus musculus; experiment: Inhibition of FAK phosphorylation in human CWR22 cells xenografted in mouse at 55 mg/kg, po administered as a single dose measured at 2 hrs; format: functional; conditions: CWR22, 2 h
[12] = Plasma protein binding in mouse; format: ADME, cell-free; conditions: read-out: PPB (converted)
[13] = system: Mus musculus; experiment: Inhibition of JAK2-mediated STAT3 phosphorylation in human CWR22 cells xenografted mouse at 55 mg/kg, po administered as a single dose measured up to 12 hrs; format: functional; conditions: CWR22, 12 h
[14] = Oral bioavailability in Sprague-Dawley rat at 5 mg/kg; format: ADME, organism-based; conditions: in vivo
[15] = AUC (0 to infinity) in Sprague-Dawley rat at 5 mg/kg, po; format: ADME, organism-based; set-up: time infinity, dose 5 mg/kg, route oral; conditions: plasma
[16] = Tmax in Sprague-Dawley rat at 5 mg/kg, po; format: ADME, organism-based; set-up: dose 5 mg/kg, route oral; conditions: in vivo
[17] = Cmax in Sprague-Dawley rat at 5 mg/kg, po; format: ADME, organism-based; set-up: dose 5 mg/kg, route oral; conditions: in vivo
[18] = Clearance in Sprague-Dawley rat at 1 mg/kg, iv; format: ADME, organism-based; set-up: dose 1 mg/kg, route intravenous; conditions: in vivo
[19] = Volume of distribution in Sprague-Dawley rat at 1 mg/kg, iv; format: ADME, organism-based; set-up: dose 1 mg/kg, route intravenous; conditions: in vivo
[20] = AUC (0 to t) in Sprague-Dawley rat at 1 mg/kg, iv; format: ADME, organism-based; set-up: dose 1 mg/kg, route intravenous; conditions: plasma
[21] = Half life in Sprague-Dawley rat at 1 mg/kg, iv; format: ADME, organism-based; set-up: dose 1 mg/kg, route intravenous; conditions: in vivo

T1 sequence (Q05397 whole entry): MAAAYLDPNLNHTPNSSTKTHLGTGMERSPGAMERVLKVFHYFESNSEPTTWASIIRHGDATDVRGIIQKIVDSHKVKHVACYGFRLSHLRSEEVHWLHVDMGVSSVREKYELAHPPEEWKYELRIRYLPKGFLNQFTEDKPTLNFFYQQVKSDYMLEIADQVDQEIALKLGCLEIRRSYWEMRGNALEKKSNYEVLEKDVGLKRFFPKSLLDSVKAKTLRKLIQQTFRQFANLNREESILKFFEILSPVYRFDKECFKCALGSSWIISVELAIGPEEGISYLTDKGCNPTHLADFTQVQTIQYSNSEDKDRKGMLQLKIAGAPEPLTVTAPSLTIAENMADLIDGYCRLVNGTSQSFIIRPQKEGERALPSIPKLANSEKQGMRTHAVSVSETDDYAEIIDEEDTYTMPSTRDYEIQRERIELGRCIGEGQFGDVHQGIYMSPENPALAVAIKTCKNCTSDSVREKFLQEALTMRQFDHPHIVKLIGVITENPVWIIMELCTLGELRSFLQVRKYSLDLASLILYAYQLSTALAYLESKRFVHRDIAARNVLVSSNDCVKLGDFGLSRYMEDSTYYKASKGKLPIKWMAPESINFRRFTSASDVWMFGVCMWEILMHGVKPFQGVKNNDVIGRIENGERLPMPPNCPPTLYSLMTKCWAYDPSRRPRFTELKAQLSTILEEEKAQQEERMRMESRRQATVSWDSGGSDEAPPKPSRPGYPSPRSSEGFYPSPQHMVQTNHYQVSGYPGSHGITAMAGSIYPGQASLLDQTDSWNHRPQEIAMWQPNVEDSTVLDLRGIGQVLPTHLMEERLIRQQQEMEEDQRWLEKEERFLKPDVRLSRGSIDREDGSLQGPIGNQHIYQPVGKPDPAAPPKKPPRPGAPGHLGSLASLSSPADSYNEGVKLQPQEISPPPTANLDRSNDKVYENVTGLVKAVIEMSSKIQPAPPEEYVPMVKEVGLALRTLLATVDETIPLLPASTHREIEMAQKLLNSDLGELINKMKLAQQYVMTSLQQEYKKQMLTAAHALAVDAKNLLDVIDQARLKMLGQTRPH
T2 sequence (O60674 whole entry): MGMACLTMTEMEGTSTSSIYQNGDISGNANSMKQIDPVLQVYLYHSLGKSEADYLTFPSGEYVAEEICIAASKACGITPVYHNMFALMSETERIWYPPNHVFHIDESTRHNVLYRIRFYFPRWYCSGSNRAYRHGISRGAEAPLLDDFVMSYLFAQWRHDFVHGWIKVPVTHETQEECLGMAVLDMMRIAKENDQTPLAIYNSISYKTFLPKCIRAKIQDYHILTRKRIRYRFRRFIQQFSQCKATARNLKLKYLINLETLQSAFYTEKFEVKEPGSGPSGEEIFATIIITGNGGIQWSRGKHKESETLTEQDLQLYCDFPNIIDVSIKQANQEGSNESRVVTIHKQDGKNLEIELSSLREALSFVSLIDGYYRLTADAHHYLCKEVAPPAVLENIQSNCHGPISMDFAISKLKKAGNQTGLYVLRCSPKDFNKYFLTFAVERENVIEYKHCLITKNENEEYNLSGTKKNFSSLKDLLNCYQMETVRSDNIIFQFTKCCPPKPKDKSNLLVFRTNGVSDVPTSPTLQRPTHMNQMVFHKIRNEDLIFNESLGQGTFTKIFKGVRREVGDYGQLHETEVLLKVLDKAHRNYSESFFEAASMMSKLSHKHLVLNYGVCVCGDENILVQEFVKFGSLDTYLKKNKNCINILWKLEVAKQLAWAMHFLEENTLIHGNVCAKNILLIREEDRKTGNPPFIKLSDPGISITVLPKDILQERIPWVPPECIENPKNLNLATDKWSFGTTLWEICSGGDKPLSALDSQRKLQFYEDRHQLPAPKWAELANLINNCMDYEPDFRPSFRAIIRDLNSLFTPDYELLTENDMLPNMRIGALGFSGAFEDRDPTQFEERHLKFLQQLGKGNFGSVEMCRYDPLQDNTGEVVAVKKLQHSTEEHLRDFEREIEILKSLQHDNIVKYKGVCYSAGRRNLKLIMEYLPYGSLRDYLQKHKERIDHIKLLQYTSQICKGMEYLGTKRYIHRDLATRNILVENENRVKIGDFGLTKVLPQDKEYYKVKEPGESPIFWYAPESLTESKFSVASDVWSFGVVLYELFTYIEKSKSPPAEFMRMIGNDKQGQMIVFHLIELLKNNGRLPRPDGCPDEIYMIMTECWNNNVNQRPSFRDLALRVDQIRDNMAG
Insulin receptor, sequence (P06213 28-758 limits assumed): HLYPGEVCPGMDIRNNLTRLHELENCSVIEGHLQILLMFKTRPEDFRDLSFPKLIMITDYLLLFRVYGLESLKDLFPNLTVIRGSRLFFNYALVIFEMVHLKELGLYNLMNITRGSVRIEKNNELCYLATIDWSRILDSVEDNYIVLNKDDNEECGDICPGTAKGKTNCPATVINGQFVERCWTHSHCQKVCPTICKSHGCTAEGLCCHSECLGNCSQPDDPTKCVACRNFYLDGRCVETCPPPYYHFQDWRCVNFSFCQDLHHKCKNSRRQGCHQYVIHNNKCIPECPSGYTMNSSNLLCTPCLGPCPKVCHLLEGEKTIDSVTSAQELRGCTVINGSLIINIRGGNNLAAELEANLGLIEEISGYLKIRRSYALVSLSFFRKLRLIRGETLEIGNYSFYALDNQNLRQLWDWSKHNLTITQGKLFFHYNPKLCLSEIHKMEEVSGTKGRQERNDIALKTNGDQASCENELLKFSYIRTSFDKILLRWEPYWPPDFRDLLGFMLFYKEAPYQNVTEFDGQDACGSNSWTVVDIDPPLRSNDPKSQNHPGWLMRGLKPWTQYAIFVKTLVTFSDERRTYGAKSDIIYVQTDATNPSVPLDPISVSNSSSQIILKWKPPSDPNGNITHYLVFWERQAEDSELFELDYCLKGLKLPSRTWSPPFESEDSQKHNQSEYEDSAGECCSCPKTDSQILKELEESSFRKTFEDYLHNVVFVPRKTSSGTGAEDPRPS
Insulin receptor, sequence (P06213 763-1382 limits assumed): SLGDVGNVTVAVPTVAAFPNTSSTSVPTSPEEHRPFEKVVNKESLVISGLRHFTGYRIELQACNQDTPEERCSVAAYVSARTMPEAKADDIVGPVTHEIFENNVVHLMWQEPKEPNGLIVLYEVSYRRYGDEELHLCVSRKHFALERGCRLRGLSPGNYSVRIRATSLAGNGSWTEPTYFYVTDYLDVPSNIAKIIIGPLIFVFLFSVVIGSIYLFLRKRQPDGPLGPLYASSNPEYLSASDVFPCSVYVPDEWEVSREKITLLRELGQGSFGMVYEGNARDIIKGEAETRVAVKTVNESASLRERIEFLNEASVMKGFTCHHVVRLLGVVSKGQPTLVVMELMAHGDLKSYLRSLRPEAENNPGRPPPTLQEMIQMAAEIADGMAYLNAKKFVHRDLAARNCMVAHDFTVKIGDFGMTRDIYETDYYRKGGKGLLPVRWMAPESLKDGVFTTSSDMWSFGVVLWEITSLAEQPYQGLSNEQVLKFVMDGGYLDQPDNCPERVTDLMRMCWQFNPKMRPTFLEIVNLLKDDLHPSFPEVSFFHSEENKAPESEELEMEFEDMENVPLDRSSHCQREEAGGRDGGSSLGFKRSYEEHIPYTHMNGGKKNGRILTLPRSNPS

COc1cc(Nc2ncc3ccc(-c4ccccc4)n3n2)cc(OC)c1OC
IC50 [1]: 17 nM | IC50 [2]: 0.2 nM

COc1cc(C2CCN(CC(N)=O)CC2)ccc1Nc1ncc2ccc(-c3ccccc3OC)n2n1
IC50 [1]: 21 nM | IC50 [2]: 250 nM

COc1ccccc1-c1ccc2cnc(Nc3ccc(C4CCN(CC(N)=O)CC4)cc3)nn12
IC50 [3]: 690 nM | IC50 [4]: 41 nM | IC50 [1]: 55 nM | IC50 [2]: 0.6 nM

CN(c1ccccc1-c1ccc2cnc(Nc3ccc(C4CCN(CC(N)=O)CC4)cc3)nn12)S(C)(=O)=O
half-life [5]: < 5 min | half-life [6]: 11 min | half-life [7]: 6 min | half-life [8]: 15 min | IC50 [3]: 610 nM | IC50 [4]: 15 nM | IC50 [1]: 14 nM | IC50 [2]: 2 nM

CC(C)(C)NS(=O)(=O)c1cccc(-c2ccc3cnc(Nc4ccc(C5CCN(CC(N)=O)CC5)cc4)nn23)c1
IC50 [3]: 1340 nM | IC50 [4]: 90 nM | IC50 [1]: 5.7 nM | IC50 [2]: 0.64 nM

COc1ccc(-c2ccc3cnc(Nc4ccc(C5CCN(CC(N)=O)CC5)cc4)nn23)cn1
IC50 [3]: 1190 nM | IC50 [4]: 62 nM | IC50 [1]: 39 nM | IC50 [2]: 0.77 nM

CS(=O)(=O)Nc1cccc(-c2ccc3cnc(Nc4ccc(C5CCN(CC(N)=O)CC5)cc4)nn23)c1
IC50 [3]: 660 nM | IC50 [4]: 60 nM | IC50 [1]: 21 nM | IC50 [2]: 0.22 nM

CN(c1cccc(-c2ccc3cnc(Nc4ccc(C5CCN(CC(N)=O)CC5)cc4)nn23)c1)S(C)(=O)=O
IC50 [3]: > 10000 nM | IC50 [4]: 45 nM | IC50 [1]: 48 nM | IC50 [2]: 0.09 nM

NC(=O)CN1CCC(c2ccc(Nc3ncc4ccc(-c5cccc(CO)c5)n4n3)cc2)CC1
IC50 [3]: 1390 nM | IC50 [4]: 27 nM | IC50 [1]: 33 nM | IC50 [2]: 0.27 nM

CS(=O)(=O)c1ccc(-c2ccc3cnc(Nc4ccc(C5CCN(CC(N)=O)CC5)cc4)nn23)cc1
IC50 [3]: > 10000 nM | IC50 [4]: 29 nM | IC50 [1]: 114 nM | IC50 [2]: 0.22 nM

CS(=O)(=O)c1cccc(-c2ccc3cnc(Nc4ccc(C5CCN(CC(N)=O)CC5)cc4)nn23)c1
IC50 [3]: 1010 nM | IC50 [4]: 58 nM | IC50 [1]: 25 nM | IC50 [2]: 0.52 nM

CN(c1ncccc1-c1ccc2cnc(Nc3ccc(C4CCN(CC(N)=O)CC4)cc3)nn12)S(C)(=O)=O
IC50 [3]: 750 nM | IC50 [4]: 38 nM | IC50 [1]: 14 nM | IC50 [2]: 2.1 nM

COc1cccnc1-c1ccc2cnc(Nc3ccc(C4CCN(CC(N)=O)CC4)cc3)nn12
IC50 [3]: > 10000 nM | IC50 [4]: 1140 nM | IC50 [1]: 2040 nM | IC50 [2]: 16 nM

NC(=O)CN1CCC(c2ccc(Nc3ncc4ccc(-c5ncccn5)n4n3)cc2)CC1
IC50 [1]: > 10000 nM | IC50 [2]: 85 nM

NC(=O)CN1CCC(c2ccc(Nc3ncc4ccc(-c5cnccn5)n4n3)cc2)CC1
IC50 [4]: 282 nM | IC50 [1]: 551 nM | IC50 [2]: 8.9 nM

NC(=O)CN1CCC(c2ccc(Nc3ncc4ccc(-c5cccc6c5OC(F)(F)O6)n4n3)cc2)CC1
IC50 [4]: > 1000 nM | IC50 [1]: 122 nM | IC50 [2]: 13 nM

CN(C)Cc1ccc(-c2ccc3cnc(Nc4ccc(C5CCN(CC(N)=O)CC5)cc4)nn23)cc1
IC50 [1]: > 1000 nM | IC50 [2]: 2900 nM

CS(=O)(=O)N1Cc2cccc(-c3ccc4cnc(Nc5ccc(C6CCN(CC(N)=O)CC6)cc5)nn34)c2C1
IC50 [1]: 205 nM

NC(=O)CN1CCC(c2ccc(Nc3ncc4ccc(-c5cccc6cccnc56)n4n3)cc2)CC1
IC50 [4]: 170 nM | IC50 [1]: 167 nM | IC50 [2]: 6.3 nM

Cc1cc(-c2ccccc2N(C)S(C)(=O)=O)n2nc(Nc3ccc(C4CCN(CC(N)=O)CC4)cc3)ncc12
IC50 [3]: 1230 nM | IC50 [1]: 11 nM

CN(c1ccccc1-c1cc(Cl)c2cnc(Nc3ccc(C4CCN(CC(N)=O)CC4)cc3)nn12)S(C)(=O)=O
IC50 [9]: 380 nM | IC50 [10]: 2.9 nM | inhibition in vivo at 55 mg/kg [11]: > 75% | fraction unbound [12]: 0.006 | inhibition in vivo at 55 mg/kg [13]: > 75% | bioavailability [14]: 12% | AUC(0-inf) [15]: 832 ng·h/mL | Tmax [16]: 132 min | Cmax [17]: 185 ng/mL | clearance [18]: 14 mL/min/kg | Vd [19]: 1.3 L/kg | AUC(0-t) [20]: 1320 ng·h/mL | half-life [21]: 60 min | half-life [5]: 11 min | half-life [6]: 17 min | half-life [7]: 21 min | half-life [8]: 26 min | IC50 [3]: 420 nM | IC50 [4]: 12 nM | IC50 [1]: 5 nM | IC50 [2]: 2.5 nM
